Consider six molecules from patent US20070270418A1, “Inhibitors of P38 and Methods of Using the Same” (priority 2003, published 2007).

Common to all, as to assay type: biochemical
For one experiment, the target named is T1, p38β (Homo sapiens, UniProt Q15759).
T1 construct: p38 MAP Kinases are recombinant human full-length proteins with an amino-terminal GST fusion; GST (N); purchased Upstate (Charlottesville, Va.); host or cells: E. coli
Put plainly: Kinase selectivity, ATF2 phosphorylation ELISA. The protocol: All kinases and the substrate ATF2 are acquired from Upstate (Charlottesville, Va.). p38 MAP Kinases are recombinant human full-length proteins with an amino-terminal GST fusion, expressed in and purified from E. coli. ATF2 is a GST fusion protein containing amino acids 19-96 of human ATF2 expressed in E. coli. All proteins were aliquoted and stored at −80° C.
p38 MAP Kinase assays are performed using an assay buffer containing 25 mM HEPES, pH 7.5, 10 mM MgCl2, 2 mM DTT, 20 mM β-glycerophosphate, 0.1 mM Na3VO4, 40 μM ATP and 1.25 μM of ATF2, together with 6 ng of p38α protein, 12 ng p38β protein, 1.5 ng p38γ, or 0.4 ng JNK2α2. Compounds are serially diluted in DMSO and 2 μL of test compound at 25× final concentration is used. The vehicle control receives DMSO only. Test compounds are pre-incubated with 20 μl of enzyme in kinase buffer (25 mM HEPES, pH 7.5, 10 mM MgCl2, 2 mM DTT, 20 mM 3-glycerophosphate and 0.1 mM Na3VO4) at room temperature for 15 minutes. […] The reactions are incubated for 30 minutes at 37° C. and terminated by the addition of 18 μl of 200 mM EDTA. An ELISA method is used to measure the phosphorylation of ATF2 at Thr 69. High binding 96-well plates (Corning 3369) are coated with 50 μl of kinase reaction for 1 hour at 37° C. The coated plates are washed with 200 μl washing buffer (25 mM Tris HCl, pH 8.3, 192 mM glycine, 0.1% SDS and 0.05% Tween-20) three times. The plates are then washed three times with SuperBlock in TBS (Pierce, 37535). After blocking, plates are incubated with 50 μl of rabbit anti-phospho-ATF2 antibody (Cell Signaling, 9221 L, 1:500) for 30 minutes at 37° C. Plates are washed three times with washing buffer prior to incubation with 50 μl HRP-conjugated goat anti-rabbit antibody (Cell Signaling, 7074, 1:500) for 30 minutes at 37° C. Plates are then washed three times with washing buffer before incubation with 50 μl of Ultra TMB-ELISA (Pierce, 34028) for 8 minutes at room temperature. Finally, 50 μl of phosphoric acid (1 M) is added to stop reactions and plate absorbance is read at 450 nm on a SpectraMax 250 plate reader.
A selectivity panel is used to test the cross-reactivity of compounds of the invention with the β and γ isoforms of p38 MAP kinase, Src^p60 and JNK2α2. The p38β, p38γ, and JNK2α2 assays are described in Example 4. The Src^p60 assay measures the ability of compounds to inhibit Src^p60-catalyzed phosphorylation of a peptide substrate.
A general note: ELISA stands for enzyme-linked immunosorbent assay.

In a further experiment the target is T2, p38α (Homo sapiens, UniProt Q16539).
T2 construct: p38 MAP Kinases are recombinant human full-length proteins with an amino-terminal GST fusion; GST (N); purchased Upstate (Charlottesville, Va.); host or cells: E. coli
The experiment is described as follows: p38 MAP Kinase assay, ATF2 phosphorylation (ELISA). The note with it: 40 μM ATP. In outline: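 Recombinant full-length GST-tagged human p38α (6 ng) pre-incubated 15 min at room temperature with compound, then reacted 30 min at 37° C with 40 μM ATP and 1.25 μM GST-ATF2 (aa 19-96) in HEPES pH 7.5/MgCl2 buffer. EDTA stop; ATF2 Thr69 phosphorylation measured by anti-phospho-ATF2 ELISA at 450 nm.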

For a further experiment, the target named is T3, Syk (Homo sapiens, UniProt P43405).
T3 construct: purchased Upstate (Charlottesville, Va.)
The experiment is described as follows: Broad selectivity panel, 32P incorporation. The note with it: 40 μM ATP, read-out: Percent inhibition Syk; for inhibition at 0.1 µM: 0.1 μM compound; for inhibition at 1 µM: 1 μM compound. The protocol: (§1) Various compounds of the present invention are screened against a panel of 24 additional kinases (Upstate, Charlottesville, Va.). Compounds are tested 0.1 μM and 1 μM in reactions containing 40 μM ATP. Incorporation of radiolabeled phosphate (^32P) into each kinase substrate is measured in the presence and absence of test compound.

Another experiment has as its target T4, InsR (Homo sapiens, UniProt P06213).
T4 construct: purchased Upstate (Charlottesville, Va.)
Put plainly: Broad selectivity panel, 32P incorporation. The note with it: 40 μM ATP, read-out: Percent inhibition InsR; for inhibition at 0.1 µM: 0.1 μM compound; for inhibition at 1 µM: 1 μM compound. The protocol:
as §1

For a further experiment, the target named is T5, Lck (Homo sapiens, UniProt P06239).
T5 construct: purchased Upstate (Charlottesville, Va.)
Put plainly: Broad selectivity panel, 32P incorporation. The note with it: 40 μM ATP, read-out: Percent inhibition Lck; for inhibition at 0.1 µM: 0.1 μM compound; for inhibition at 1 µM: 1 μM compound. The method, then: as §1

A further experiment has as its target T6, MAPK2 (Homo sapiens, UniProt P28482).
T6 construct: purchased Upstate (Charlottesville, Va.)
The experiment is described as follows: Broad selectivity panel, 32P incorporation. The note with it: 40 μM ATP, read-out: Percent inhibition MAPK2; for inhibition at 0.1 µM: 0.1 μM compound; for inhibition at 1 µM: 1 μM compound. The protocol:
(§2) Various compounds of the present invention are screened against a panel of 24 additional kinases (Upstate, Charlottesville, Va.). Compounds are tested 0.1 μM and 1 μM in reactions containing 40 μM ATP. Incorporation of radiolabeled phosphate (^32P) into each kinase substrate is measured in the presence and absence of test compound. Results are reported as the percent decrease in the amount of ^32P incorporated into the substrate in the presence of compound, compared to buffer control.

Another experiment addresses T7, PKA (Homo sapiens, UniProt P17612).
T7 construct: purchased Upstate (Charlottesville, Va.)
The experiment is described as follows: Broad selectivity panel, 32P incorporation. Conditions: 40 μM ATP, read-out: Percent inhibition PKA; for inhibition at 0.1 µM: 0.1 μM compound; for inhibition at 1 µM: 1 μM compound. The protocol:
as §2

A further experiment has as its target T8, CDK2/cyclinA (Homo sapiens, UniProt P24941).
T8 construct: purchased Upstate (Charlottesville, Va.)
The experiment is described as follows: Broad selectivity panel, 32P incorporation. Conditions: 40 μM ATP, read-out: Percent inhibition CDK2/cyclinA; for inhibition at 0.1 µM: 0.1 μM compound; for inhibition at 1 µM: 1 μM compound. The method, then:
as §2

The next experiment concerns the target T9, MEK1 (Homo sapiens, UniProt Q02750).
T9 construct: purchased Upstate (Charlottesville, Va.)
The experiment is described as follows: Broad selectivity panel, 32P incorporation. Conditions: 40 μM ATP, read-out: Percent inhibition MEK1; for inhibition at 0.1 µM: 0.1 μM compound; for inhibition at 1 µM: 1 μM compound. The method, then:
as §2

In a further experiment the target is T10, PDGFR α (Homo sapiens, UniProt P16234).
T10 construct: purchased Upstate (Charlottesville, Va.)
The experiment is described as follows: Broad selectivity panel, 32P incorporation. The note with it: 40 μM ATP, read-out: Percent inhibition PDGFR α; for inhibition at 0.1 µM: 0.1 μM compound; for inhibition at 1 µM: 1 μM compound. The protocol:
as §2

Another experiment concerns the target T11, Lyn (Homo sapiens, UniProt P07948).
T11 construct: purchased Upstate (Charlottesville, Va.)
Put plainly: Broad selectivity panel, 32P incorporation. Conditions: 40 μM ATP, read-out: Percent inhibition Lyn; for inhibition at 0.1 µM: 0.1 μM compound; for inhibition at 1 µM: 1 μM compound. The protocol:
as §2

T5 sequence (P06239 whole entry, species assumed): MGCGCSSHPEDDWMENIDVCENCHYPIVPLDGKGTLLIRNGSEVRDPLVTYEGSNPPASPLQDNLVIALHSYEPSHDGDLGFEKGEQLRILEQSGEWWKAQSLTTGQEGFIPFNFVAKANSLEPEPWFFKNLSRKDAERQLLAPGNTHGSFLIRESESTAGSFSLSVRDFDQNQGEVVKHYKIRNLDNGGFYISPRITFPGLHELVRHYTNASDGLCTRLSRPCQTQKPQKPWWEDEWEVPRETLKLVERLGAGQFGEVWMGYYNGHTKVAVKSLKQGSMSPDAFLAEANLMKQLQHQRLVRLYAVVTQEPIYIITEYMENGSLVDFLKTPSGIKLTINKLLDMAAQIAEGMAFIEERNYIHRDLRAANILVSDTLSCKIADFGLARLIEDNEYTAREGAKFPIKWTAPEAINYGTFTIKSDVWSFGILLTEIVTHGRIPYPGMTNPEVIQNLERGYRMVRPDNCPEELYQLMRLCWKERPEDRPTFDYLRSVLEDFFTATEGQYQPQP
T6 sequence (P28482 whole entry): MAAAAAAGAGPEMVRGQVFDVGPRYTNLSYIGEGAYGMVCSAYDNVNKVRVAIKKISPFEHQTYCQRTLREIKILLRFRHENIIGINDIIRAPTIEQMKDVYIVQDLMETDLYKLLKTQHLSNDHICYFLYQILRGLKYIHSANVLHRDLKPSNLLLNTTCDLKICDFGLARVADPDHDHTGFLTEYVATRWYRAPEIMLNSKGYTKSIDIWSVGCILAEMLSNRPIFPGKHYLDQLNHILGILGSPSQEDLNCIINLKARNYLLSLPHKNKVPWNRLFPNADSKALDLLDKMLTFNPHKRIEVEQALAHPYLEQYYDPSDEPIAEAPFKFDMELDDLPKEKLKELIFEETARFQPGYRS
T11 sequence (P07948 whole entry, species assumed): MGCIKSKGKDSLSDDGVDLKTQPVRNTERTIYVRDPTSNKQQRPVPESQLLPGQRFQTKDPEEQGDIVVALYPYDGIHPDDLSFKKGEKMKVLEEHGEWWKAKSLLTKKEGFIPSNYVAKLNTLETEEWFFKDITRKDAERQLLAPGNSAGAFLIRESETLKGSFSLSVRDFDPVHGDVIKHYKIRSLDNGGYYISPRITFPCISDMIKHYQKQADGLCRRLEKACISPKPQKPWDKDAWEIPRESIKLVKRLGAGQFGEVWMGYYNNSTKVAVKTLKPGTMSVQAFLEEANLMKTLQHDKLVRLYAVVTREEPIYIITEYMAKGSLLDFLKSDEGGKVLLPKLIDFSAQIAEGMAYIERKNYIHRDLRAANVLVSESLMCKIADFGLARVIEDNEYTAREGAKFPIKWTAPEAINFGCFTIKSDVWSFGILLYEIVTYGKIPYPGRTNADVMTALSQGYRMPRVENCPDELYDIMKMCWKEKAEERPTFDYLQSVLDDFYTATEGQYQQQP
T10 sequence (P16234 24-1089, species assumed): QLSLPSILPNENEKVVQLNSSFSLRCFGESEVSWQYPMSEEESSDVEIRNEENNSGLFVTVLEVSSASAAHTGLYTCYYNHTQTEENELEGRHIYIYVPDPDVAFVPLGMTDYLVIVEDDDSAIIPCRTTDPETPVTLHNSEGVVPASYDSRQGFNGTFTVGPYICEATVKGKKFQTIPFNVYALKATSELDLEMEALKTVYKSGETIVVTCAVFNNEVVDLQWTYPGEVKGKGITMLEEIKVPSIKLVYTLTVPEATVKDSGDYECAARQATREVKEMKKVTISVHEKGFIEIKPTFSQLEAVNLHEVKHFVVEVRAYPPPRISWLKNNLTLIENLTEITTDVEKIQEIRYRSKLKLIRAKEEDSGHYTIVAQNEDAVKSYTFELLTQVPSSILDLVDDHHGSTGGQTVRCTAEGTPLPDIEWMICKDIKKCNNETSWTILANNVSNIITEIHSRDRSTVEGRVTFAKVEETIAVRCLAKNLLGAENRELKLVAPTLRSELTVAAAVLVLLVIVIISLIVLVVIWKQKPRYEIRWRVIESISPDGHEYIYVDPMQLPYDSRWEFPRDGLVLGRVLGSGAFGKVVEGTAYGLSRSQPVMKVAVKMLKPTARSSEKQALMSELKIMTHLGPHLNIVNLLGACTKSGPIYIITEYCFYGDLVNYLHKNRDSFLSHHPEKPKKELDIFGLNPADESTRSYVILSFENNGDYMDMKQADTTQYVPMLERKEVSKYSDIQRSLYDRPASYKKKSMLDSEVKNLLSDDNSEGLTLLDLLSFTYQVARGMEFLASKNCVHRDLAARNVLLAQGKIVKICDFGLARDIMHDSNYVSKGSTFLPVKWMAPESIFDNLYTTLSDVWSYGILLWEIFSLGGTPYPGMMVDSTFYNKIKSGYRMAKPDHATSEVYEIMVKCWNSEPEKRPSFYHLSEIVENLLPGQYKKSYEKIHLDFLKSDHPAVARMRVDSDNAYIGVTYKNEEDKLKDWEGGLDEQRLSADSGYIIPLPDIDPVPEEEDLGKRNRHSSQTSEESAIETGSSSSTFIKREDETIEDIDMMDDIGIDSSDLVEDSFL
T9 sequence (Q02750 whole entry, species assumed): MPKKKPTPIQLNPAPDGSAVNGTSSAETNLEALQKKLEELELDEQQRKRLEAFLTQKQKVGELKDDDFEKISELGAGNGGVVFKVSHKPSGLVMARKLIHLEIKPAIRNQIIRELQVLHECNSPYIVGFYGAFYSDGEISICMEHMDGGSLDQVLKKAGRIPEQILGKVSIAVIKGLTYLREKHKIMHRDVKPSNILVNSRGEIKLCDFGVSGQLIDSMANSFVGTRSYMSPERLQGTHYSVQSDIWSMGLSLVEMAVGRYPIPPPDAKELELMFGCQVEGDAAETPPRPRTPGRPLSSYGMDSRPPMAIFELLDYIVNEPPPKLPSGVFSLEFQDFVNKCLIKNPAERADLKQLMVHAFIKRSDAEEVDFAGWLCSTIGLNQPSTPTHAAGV
T1 sequence (Q15759 whole entry, the tested form may be a part): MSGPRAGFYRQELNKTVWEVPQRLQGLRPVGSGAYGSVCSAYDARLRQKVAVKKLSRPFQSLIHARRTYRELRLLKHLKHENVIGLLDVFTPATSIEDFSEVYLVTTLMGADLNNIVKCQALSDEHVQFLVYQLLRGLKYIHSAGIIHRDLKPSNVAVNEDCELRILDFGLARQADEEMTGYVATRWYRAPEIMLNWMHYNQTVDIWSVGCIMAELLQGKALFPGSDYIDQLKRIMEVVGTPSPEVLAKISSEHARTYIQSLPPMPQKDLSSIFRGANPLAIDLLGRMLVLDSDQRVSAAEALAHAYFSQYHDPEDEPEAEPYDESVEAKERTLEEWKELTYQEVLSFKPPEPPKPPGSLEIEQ
T4 sequence (P06213 28-1382, species assumed): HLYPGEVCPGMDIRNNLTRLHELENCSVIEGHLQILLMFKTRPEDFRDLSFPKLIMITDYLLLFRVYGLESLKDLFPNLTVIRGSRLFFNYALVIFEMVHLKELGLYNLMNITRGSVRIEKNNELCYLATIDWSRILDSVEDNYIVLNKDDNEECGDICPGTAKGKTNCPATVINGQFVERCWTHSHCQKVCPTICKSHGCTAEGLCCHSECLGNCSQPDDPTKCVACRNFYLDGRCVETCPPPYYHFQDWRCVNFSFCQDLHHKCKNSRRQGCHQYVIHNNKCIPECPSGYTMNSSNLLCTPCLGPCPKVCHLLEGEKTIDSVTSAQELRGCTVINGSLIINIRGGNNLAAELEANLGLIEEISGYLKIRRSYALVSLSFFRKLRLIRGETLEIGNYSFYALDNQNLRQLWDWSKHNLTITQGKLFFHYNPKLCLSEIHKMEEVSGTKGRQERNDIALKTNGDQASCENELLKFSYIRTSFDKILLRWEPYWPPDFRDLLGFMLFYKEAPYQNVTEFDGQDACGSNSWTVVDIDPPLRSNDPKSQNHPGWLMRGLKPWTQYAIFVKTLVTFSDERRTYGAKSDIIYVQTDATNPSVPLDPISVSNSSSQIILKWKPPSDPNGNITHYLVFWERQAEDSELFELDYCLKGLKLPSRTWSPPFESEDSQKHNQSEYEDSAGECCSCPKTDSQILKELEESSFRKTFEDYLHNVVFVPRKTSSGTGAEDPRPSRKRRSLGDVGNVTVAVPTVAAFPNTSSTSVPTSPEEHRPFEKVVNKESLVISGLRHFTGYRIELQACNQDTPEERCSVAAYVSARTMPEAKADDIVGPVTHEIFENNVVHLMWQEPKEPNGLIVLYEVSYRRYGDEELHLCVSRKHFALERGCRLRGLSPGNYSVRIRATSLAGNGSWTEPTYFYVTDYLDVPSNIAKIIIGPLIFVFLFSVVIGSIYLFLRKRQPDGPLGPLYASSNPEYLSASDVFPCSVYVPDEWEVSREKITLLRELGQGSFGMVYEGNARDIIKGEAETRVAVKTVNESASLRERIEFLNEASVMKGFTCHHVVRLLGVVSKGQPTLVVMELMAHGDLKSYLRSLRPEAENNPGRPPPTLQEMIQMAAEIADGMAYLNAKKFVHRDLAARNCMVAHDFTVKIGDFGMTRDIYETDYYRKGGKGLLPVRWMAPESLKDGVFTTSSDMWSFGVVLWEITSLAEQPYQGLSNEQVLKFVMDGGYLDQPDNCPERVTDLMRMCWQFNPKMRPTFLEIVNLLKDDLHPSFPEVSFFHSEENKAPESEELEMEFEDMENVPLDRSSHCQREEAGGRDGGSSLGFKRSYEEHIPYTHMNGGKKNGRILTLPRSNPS
T2 sequence (Q16539 whole entry, the tested form may be a part): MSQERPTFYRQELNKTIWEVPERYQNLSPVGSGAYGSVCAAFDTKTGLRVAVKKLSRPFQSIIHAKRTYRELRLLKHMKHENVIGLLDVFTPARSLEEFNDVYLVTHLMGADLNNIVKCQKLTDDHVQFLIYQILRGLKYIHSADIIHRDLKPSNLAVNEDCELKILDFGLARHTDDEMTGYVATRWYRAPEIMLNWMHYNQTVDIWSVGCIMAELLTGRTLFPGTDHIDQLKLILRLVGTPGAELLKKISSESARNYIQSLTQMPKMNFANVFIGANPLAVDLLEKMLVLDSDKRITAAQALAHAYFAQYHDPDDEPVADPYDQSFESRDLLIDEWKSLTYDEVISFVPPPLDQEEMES

A word on the IC50: it is the concentration needed to halve the response being measured. Turning to `Fc1ccc(-c2nc3occn3c2-c2ccnc(NC3CN4CCC3CC4)n2)cc1` (stereo not drawn) [LXXXIV], the results for the IC50 on p38β and at p38α were 1290 nM and 15 nM, respectively.
For `CS(=O)(=O)N1CCC(Nc2nccc(-c3c(-c4ccc(F)cc4)nc4occn34)n2)CC1` [CCLXXIX], the IC50 on p38β came out at 1.8 nM; at p38α, 0.71 nM. Besides, the inhibition at 0.1 µM came out at 3% on Syk; 9% at InsR; 2% at Lck; 14% on MAPK2; 6% at PKA; 24% at CDK2/cyclinA. Further, the inhibition at 0.1 µM is 7% on MEK1, 0% on PDGFR α and -7% at Lyn. Also, the inhibition at 1 µM on Syk was 10%; at InsR, 2%; on Lck it was -3%; at MAPK2, 43%; on PKA it was -2%; on CDK2/cyclinA, 65%. Besides, the inhibition at 1 µM on MEK1 was 11%; at PDGFR α, -9%; at Lyn it was -13%.
As for `CN1[C@@H]2CC[C@H]1C[C@@H](Nc1nccc(-c3c(-c4ccc(F)cc4)nc4occn34)n1)C2` [CCLXXXI], the results for the half-inhibitory concentration (IC50) against p38β and against p38α were 24.6 nM and 4.91 nM, respectively. Moreover, the inhibition at 0.1 µM on Syk was 17%; on InsR, -7%; on Lck it was 26%; on MAPK2, 10%; at PKA it was -11%; on CDK2/cyclinA, -2%. Further, the inhibition at 0.1 µM at MEK1 was -3%; on PDGFR α, 11%; on Lyn, -6%. Further, the inhibition at 1 µM at Syk was 33%; on InsR it was 14%; at Lck, 35%; on MAPK2, 23%; at PKA it was -2%; on CDK2/cyclinA, 5%. For the same molecule, the inhibition at 1 µM is 7% at MEK1, 21% at PDGFR α and 4% on Lyn.
Turning to `CC(=O)N1CCC(Nc2nccc(-c3c(-c4ccc(F)cc4)nc4occn34)n2)CC1` [CCLXXVIII], the IC50 against p38β stood at 6.3 nM; at p38α, 2.38 nM. Further, the inhibition at 0.1 µM on InsR is -28%; at Lck, 5%; at MAPK2, 18%; on PKA, -6%; on CDK2/cyclinA it was 1%; at MEK1 it was 6%. The values for the inhibition at 0.1 µM at PDGFR α and at Lyn were 23% and -26%, respectively. Moreover, the inhibition at 1 µM at InsR is -4%; at Lck it was 31%; at MAPK2, 42%; at PKA it was 10%; at CDK2/cyclinA it was 20%; at MEK1, 13%. Further, the inhibition at 1 µM at PDGFR α is 17%; at Lyn, -29%.
Regarding `Fc1ccc(-c2nc3occn3c2-c2ccnc(NC3CCNCC3)n2)cc1` [CCLXXX], the IC50 at p38β came to 95.4 nM; at p38α, 13.1 nM. The inhibition at 0.1 µM at Syk is 5%; on Lck it was -3%; on MAPK2 it was -9%; on PKA it was 0%; at CDK2/cyclinA, 3%; at MEK1 it was 9%. Further, the inhibition at 0.1 µM at PDGFR α is 1%; at Lyn it was -24%. The inhibition at 1 µM at Syk was found to be 40%; on Lck, 27%; at MAPK2 it was 9%; at PKA it was 11%; on CDK2/cyclinA, 19%; on MEK1 it was 13%. Also, the inhibition at 1 µM at PDGFR α was 8%; at Lyn it was 27%.
Regarding `CN(C)CC(C)(C)CNc1nccc(-c2c(-c3ccc(F)cc3)nc3occn23)n1` [CXIX], the IC50 amounted to 288 nM at p38β and 17 nM against p38α. Further, the inhibition at 0.1 µM was 35% on Syk; 8% on InsR; 10% on MAPK2; 1% on PKA; -1% on CDK2/cyclinA; -1% at MEK1. Also, the inhibition at 0.1 µM on PDGFR α worked out at 26%; at Lyn, 2%. Also, the inhibition at 1 µM at Syk is 33%; at InsR, 3%; at MAPK2, 7%; at PKA, -8%; at CDK2/cyclinA, -1%; on MEK1, 2%. The inhibition at 1 µM was 10% at PDGFR α and -12% at Lyn.
